The record followed here is the Kinase Knowledgebase extract (Sharma et al. 2016).

SMILES strings stand for the structures. pIC50: −log10 of the molar value. Bounds are passed on as bounds.

One test has as its target CDK2 (UniProt P24941). Briefly: Enzyme Assay.
Conditions: not given
In general, pIC50 refers to the IC50 on a negative log10 scale, so that one unit is a factor of ten. Turning to `CNS(=O)(=O)c1ccc2c(c1)/C(=C/c1[nH]cc3c1CCNC3=O)C(=O)N2`, the pIC50 is 8.05.

The next test deals with EGFR (mouse) (UniProt P00533).
Test: not given
The conditions noted are these: 3t3.
Regarding `O=C1Nc2cc(Br)ccc2/C1=C/c1[nH]cc2c1CCNC2=O`, the negative-log IC50 (pIC50) is less than 4.70.

`O=C1Nc2cc(Cl)ccc2/C1=C/c1[nH]cc2c1CCOC2=O` gave a pIC50 of less than 4.70.

`O=C1Nc2cc(-c3cccnc3)ccc2/C1=C/c1[nH]cc2c1CCOC2=O` showed a negative logarithm of the IC50 (pIC50) of less than 4.70.

`COc1ccccc1-c1ccc2c(c1)NC(=O)/C2=C\c1[nH]cc2c1CCOC2=O` had a pIC50 of less than 4.70.

With `O=C1Nc2cc(-c3cccc(C(=O)O)c3)ccc2/C1=C/c1[nH]cc2c1CCOC2=O`, the negative-log IC50 (pIC50) was 4.73.

In the case of `O=C1Nc2ccc(C(=O)O)cc2/C1=C/c1[nH]cc2c1CCOC2=O`, the pIC50 was less than 4.70.

As to `O=C1Nc2ccc(-c3ccccc3)cc2/C1=C/c1[nH]cc2c1CCOC2=O`, the pIC50 is less than 4.70.

Take `O=C1Nc2cc(-c3ccccc3)ccc2/C1=C/c1[nH]cc2c1CCNC2=O`: the pIC50 is less than 4.70.

The compound `CC(C)NS(=O)(=O)c1ccc2c(c1)/C(=C/c1[nH]cc3c1CCOC3=O)C(=O)N2` showed a negative logarithm of the IC50 (pIC50) of less than 4.70.

The compound `O=C1Nc2ccc(S(=O)(=O)N3CCc4cc(Br)ccc43)cc2/C1=C/c1[nH]cc2c1CCOC2=O` had a pIC50 of less than 4.70.

For `Cc1cccc2c1/C(=C/c1[nH]cc3c1CCOC3=O)C(=O)N2`, the pIC50 was less than 4.70.

With `CN(C)S(=O)(=O)c1ccc2c(c1)/C(=C/c1[nH]cc3c1CCNC3=O)C(=O)N2`, the pIC50 is less than 4.70.

For the compound `O=C1Nc2cc(Cl)ccc2/C1=C/c1[nH]cc2c1CCNC2=O`, the negative-log IC50 (pIC50) is less than 4.70.

`O=C1Nc2ccc(-c3ccccc3)cc2/C1=C/c1[nH]cc2c1CCNC2=O` gave a pIC50 of less than 4.70.

For the compound `O=C1Nc2ccc(Br)cc2/C1=C/c1[nH]cc2c1CCNC2=O`, the negative-log IC50 (pIC50) is less than 4.70.

As for `NS(=O)(=O)c1ccc2c(c1)/C(=C/c1[nH]cc3c1CCNC3=O)C(=O)N2`, the pIC50 was less than 4.70.

In turn, `COc1ccc2c(c1)/C(=C/c1[nH]cc3c1CCNC3=O)C(=O)N2` gave a negative logarithm of the IC50 (pIC50) of less than 4.70.

`O=C1Nc2ccc(S(=O)(=O)N3CCCc4ccccc43)cc2/C1=C/c1[nH]cc2c1CCOC2=O` showed a negative-log IC50 (pIC50) of less than 4.70.

`O=C1Nc2ccc(F)cc2/C1=C/c1[nH]cc2c1CCOC2=O`: the pIC50 is less than 4.70.

As to `O=C1Nc2ccc(S(=O)(=O)N3CCc4ccccc43)cc2/C1=C/c1[nH]cc2c1CCOC2=O`, the negative logarithm of the IC50 (pIC50) is less than 4.70.

`CC(=O)Nc1ccc2c(c1)NC(=O)/C2=C\c1[nH]cc2c1CCOC2=O`: the pIC50 was less than 4.70.

The compound `Cc1c(Cl)ccc2c1/C(=C/c1[nH]cc3c1CCOC3=O)C(=O)N2` had a pIC50 of less than 4.70.

`CN(C)C(=O)c1ccc2c(c1)/C(=C/c1[nH]cc3c1CCNC3=O)C(=O)N2` had a negative-log IC50 (pIC50) of less than 4.70.

In turn, `O=C1Nc2ccc(C(=O)N3CCCC3)cc2/C1=C/c1[nH]cc2c1CCNC2=O` gave a pIC50 of less than 4.70.

`O=C1Nc2ccc(S(=O)(=O)Nc3ccccc3)cc2/C1=C/c1[nH]cc2c1CCOC2=O` showed a negative-log IC50 (pIC50) of less than 4.70.

For `O=C1Nc2ccc(Cl)cc2/C1=C/c1[nH]cc2c1CCOC2=O`, the pIC50 was less than 4.70.

For the compound `O=C1Nc2ccc3c(c2/C1=C/c1[nH]cc2c1CCOC2=O)CCOS3(=O)=O`, the pIC50 was less than 4.70.

In the case of `O=C1Nc2ccc(-c3cccc(C(=O)O)c3)cc2/C1=C/c1[nH]cc2c1CCOC2=O`, the pIC50 was less than 4.70.

`O=C1Nc2cc(C(=O)O)ccc2/C1=C/c1[nH]cc2c1CCOC2=O` had a pIC50 of less than 4.70.

Regarding `O=C1Nc2cc(Br)ccc2/C1=C/c1[nH]cc2c1CCOC2=O`, the pIC50 was less than 4.70.

Turning to `O=C1Nc2cccc(CCO)c2/C1=C/c1[nH]cc2c1CCOC2=O`, the pIC50 was less than 4.70.

`O=C1Nc2cc(-c3ccc(F)cc3)ccc2/C1=C/c1[nH]cc2c1CCOC2=O` gave a pIC50 of less than 4.70.

`O=C1Nc2c(Cl)cccc2/C1=C/c1[nH]cc2c1CCOC2=O` gave a negative-log IC50 (pIC50) of less than 4.70.

Compound `CNS(=O)(=O)c1ccc2c(c1C)/C(=C/c1[nH]cc3c1CCOC3=O)C(=O)N2` had a negative logarithm of the IC50 (pIC50) of less than 4.70.

In turn, `O=C1Nc2cc(-c3ccccc3)ccc2/C1=C/c1[nH]cc2c1CCOC2=O` showed a pIC50 of less than 4.70.

In turn, `CN(C)S(=O)(=O)c1ccc2c(c1)/C(=C/c1[nH]cc3c1CCOC3=O)C(=O)N2` showed a pIC50 of less than 4.70.

In turn, `COc1ccc2c(c1)/C(=C/c1[nH]cc3c1CCOC3=O)C(=O)N2` gave a pIC50 of less than 4.70.

The compound `COc1ccc(-c2ccc3c(c2)NC(=O)/C3=C\c2[nH]cc3c2CCOC3=O)cc1` gave a pIC50 of less than 4.70.

`O=C1Nc2ccc(S(=O)(=O)Nc3cccc(Cl)c3)cc2/C1=C/c1[nH]cc2c1CCOC2=O` had a pIC50 of less than 4.70.

`Cc1c(Br)ccc2c1/C(=C/c1[nH]cc3c1CCOC3=O)C(=O)N2` showed a pIC50 of less than 4.70.

In the case of `O=C1Nc2cccc(CCO)c2/C1=C/c1[nH]cc2c1CCNC2=O`, the negative logarithm of the IC50 (pIC50) was less than 4.70.

Turning to `O=C1Nc2ccc(Br)cc2/C1=C/c1[nH]cc2c1CCOC2=O`, the pIC50 was less than 4.70.

Regarding `CNS(=O)(=O)c1ccc2c(c1)/C(=C/c1[nH]cc3c1CCOC3=O)C(=O)N2`, the pIC50 was less than 4.70.

The compound `COc1cccc(-c2ccc3c(c2)NC(=O)/C3=C\c2[nH]cc3c2CCOC3=O)c1` had a pIC50 of less than 4.70.

`CN(c1cccc(Cl)c1)S(=O)(=O)c1ccc2c(c1)/C(=C/c1[nH]cc3c1CCOC3=O)C(=O)N2`: the negative logarithm of the IC50 (pIC50) is less than 4.70.

`NS(=O)(=O)c1ccc2c(c1)/C(=C/c1[nH]cc3c1CCOC3=O)C(=O)N2` showed a pIC50 of less than 4.70.

Take `O=C1Nc2ccc(C(=O)N3CCOCC3)cc2/C1=C/c1[nH]cc2c1CCNC2=O`: the negative logarithm of the IC50 (pIC50) is less than 4.70.

`O=C1Nc2ccc(F)cc2/C1=C/c1[nH]cc2c1CCNC2=O` showed a negative logarithm of the IC50 (pIC50) of less than 4.70.

With `O=C1Nc2ccc(S(=O)(=O)N3CCc4ccccc4C3)cc2/C1=C/c1[nH]cc2c1CCOC2=O`, the negative-log IC50 (pIC50) is less than 4.70.

As for `O=C1Nc2cc(F)ccc2/C1=C/c1[nH]cc2c1CCOC2=O`, the pIC50 is less than 4.70.

For `CNS(=O)(=O)c1ccc2c(c1)/C(=C/c1[nH]cc3c1CCNC3=O)C(=O)N2`, the pIC50 is less than 4.70.
